Results reported in US20240261443A1, “COMPOUNDS AND COMPOSITIONS USEFUL AS RADIOTRACERS FOR IMAGING OF REACTIVE OXIDATIVE SPECIES” (Wake Forest University Health Sciences, priority 2019, published 2024).

Assays:
PC3 cell line = assay: MTT cytotoxicity IC50 assay, PC3; format: cell-based, human
Procedure: (§1) The cells were seeded at density 5×10^3 cells/well. After 24 h pre-incubation period, cells were treated with 0.01 mM to 2.0 mM of freshly prepared KS1 and KS2 along with ascorbate (n=3) for 48 h. 0.2% of DMSO served as vehicle control. After 48 h, the solutions were removed from all plates and MTT assays performed following the published protocols. IC50 values are presented as mean±SD from at least three independent experiments.
(§2) There is growing evidence for a therapeutic role of ascorbate against several cancers (Creagan et al., Failure of High-Dose Vitamin C (Ascorbic Acid) Therapy to Benefit Patients with Advanced Cancer. New England Journal of Medicine 1979, 301 (13), 687-690; Chen et al., Pharmacologic ascorbic acid concentrations selectively kill cancer cells: action as a pro-drug to deliver hydrogen peroxide to tissues. Proceedings of the National Academy of Sciences of the United States of America 2005, 102 (38), 13604-13609; Prasad et al., High Doses of Multiple Antioxidant Vitamins: Essential Ingredients in Improving the Efficacy of Standard Cancer Therapy. Journal of the American College of Nutrition 1999, 18 (1), 13-25). Pharmacologic doses of ascorbate (oral and/or intravenous) could increase the effectiveness of cancer chemotherapy in many solid cancer therapies (López-Lizaro, Dual role of hydrogen peroxide in cancer: Possible relevance to cancer chemoprevention and therapy. Cancer Letters 2007, 252 (1), 1-8; Li et al., New Developments and Novel Therapeutic Perspectives for Vitamin C. The Journal of Nutrition 2007, 137 (10), 2171-2184; Klimant et al., Intravenous vitamin C in the supportive care of cancer patients: a review and rational approach. Current Oncology 2018, 25 (2), 139-148. The primary objective of this experiment was to determine the cytotoxic effects of KS1 at pharmacological concentrations. Cancer cell lines were selected based on their high ROS implications. […] These cell lines have been studied extensively with ascorbic acid treatments (Schoenfeld et al., O(2)(·−) and H(2)O(2)-Mediated Disruption of Fe Metabolism Causes the Differential Susceptibility of NSCLC and GBM Cancer Cells to Pharmacological Ascorbate. Cancer Cell 2017, 31 (4), 487-500.e8; Chen et al., Modulators of Redox Metabolism in Head and Neck Cancer. Antioxidants & Redox Signaling 2017, 29 (16), 1660-1690; Khandrika et al., Oxidative stress in prostate cancer. Cancer Lett 2009, 282 (2), 125-136.

SCC-61 cell line (HNSCC) = assay: MTT cytotoxicity IC50 assay, SCC-61; format: cell-based, human; conditions: SCC-61, MTT
Procedure: as §1, §2

[1] = test system: SCC-61 and rSCC-61 cell lines; assay: MitoSOX fluorescence ROS assay, with or without SOD blocker; format: cell-based, human
Procedure: As a first-line tool to screen KS1 and KS2: SCC-61 has higher intracellular ROS than rSCC-61. MitoSOX is a mitochondrion-targeted dihydroethidium based derivative that primarily detects ROS (superoxide anion) produced within mitochondria. Mitosox assays without any ligands were used as controls. The two cell lines were treated with KS1, KS2 and ascorbate (10.0 μM) and incubated for an hour. MitoSOX (1.0 μM) in phenol red-free DMEM/F12 media was added and incubated for an additional 10 min. The cells were then washed with PBS and imaged in the same media.
In addition to testing KS1 with the MitoSOX assay, we compared our results with no ligand controls and ascorbate as a reference standard. The two cell lines were treated with KS1 and ascorbate (10.0 μM) and incubated for an hour. MitoSOX (1.0 μM) in phenol red-free DMEM/F12 media was added and incubated for an additional 10 min. The cells were then washed with PBS and imaged in the same media. Ligand specificity is commonly determined by pretreating the cells with high concentrations of blockers. Superoxide dismutase (SOD), an enzyme that selectively suppresses accumulation of ROS-superoxide peroxide anions, was added as blocker (1.0 mM) 60 min before the treatment of KS1 (Bielski et al., Chemistry of ascorbic acid radicals. in Ascorbic Acid: Chemistry, Metabolism, and Uses. Chapter. 1982; 4:81-100). Fluorescence was subsequently measured and its intensity was quantified in f.u (fluorescence units).
Ligand specificity is commonly determined by pretreating the cells with high concentrations of blockers. We used superoxide dismutase (SOD), an enzyme that selectively suppresses accumulation of ROS-superoxide peroxide anions (Bielski et al., Chemistry of ascorbic acid radicals. in Ascorbic Acid: Chemistry, Metabolism, and Uses. Chapter 1982, 4, 81-100). The same MitoSOX assay with KS1 and KS2 (10 μM) was performed by pretreating the SCC-61 cells with SOD (1.0 mM) for 60 min.

Ex vivo serum stability = format: in vitro ADME; conditions: human serum, 37° C., after 120 min of tracer synthesis
Procedure: The ex vivo serum stability of [^18F]KS1 and [^18F]KS2 were analyzed in human serum samples, following previously published methods (Sai et al., Peptide-based PET imaging of the tumor restricted IL13RA2 biomarker. Oncotarget 2017, 5; Sattiraju et al., IL13RA2 targeted alpha particle therapy against glioblastoma. Journal of Nuclear Medicine 2016, 57 (supplement 2), 634; Wang et al., Evaluation of F-18-labeled amino acid derivatives and [18F]FDG as PET probes in a brain tumor-bearing animal model. Nuclear Medicine and Biology 2005, 32 (4), 367-375). Briefly, radiotracer was added to the human serum sample, and incubated at 37° C. Radioactive serum mixture was injected into the QC-HPLC system at 5 min, 30 min, 1 h, 1.5 h, 2 h, 2.5 h, and 3 h post radiotracer synthesis. Radiolysis through defluorination and/or oxidation of the radiotracers (if any) can be seen as new radiochemical peaks at different retention times (Rt) than the original product peak (Jin et al., A promising F-18 labeled PET radiotracer (-)-[18F]VAT for assessing the VAChT in vivo. Journal of Nuclear Medicine 2015, 56 (supplement 3); Koglin et al., [F-18]BAY 85-8050: A novel tumor specific probe for PET imaging-Preclinical results. Journal of Nuclear Medicine 2010, 51 (supplement 2), 1535; […] et al., Imaging COX-2 expression in cancer using PET/SPECT radioligands: current status and future directions. […]

[2] = test system: SCC-61 and PC3 cell lines; assay: DCFDA intracellular ROS detection assay; format: cell-based, human; conditions: 2 mM, 7 h, compared to 100 μM
Description: For this, we used dichlorofluorescin diacetate (DCFDA) intracellular ROS detection assay kit and followed manufacture recommended protocol (ZHELEV et al., Docosahexaenoic Acid Sensitizes Leukemia Lymphocytes to Barasertib and Everolimus by ROS-dependent Mechanism Without Affecting the Level of ROS and Viability of Normal Lymphocytes. Anticancer Research 2016, 36 (4), 1673-1682). We studied two patient-derived tumor cell lines: SCC-61, […], and PC3, prostate cancer cell line. The maximum allowed mass for a typical clinical PET radiotracer is <100 μM (Schwarz et al., Radiochemistry and radiopharmacology. LIC-Nuclear Medicine and PET/CT: Technology and Techniques 2016, 11, 77), so we chose 10-100 μM as our concentration range for tracer-level assays. The lowest reported pharmacologic dose for ascorbate is 2.0 mM (Levine et al., Vitamin C: a concentration-function approach yields pharmacology and therapeutic discoveries. Adv Nutr 2011, 2 (2), 78-88), so we chose this dose for our pharmacological assays. We chose the ligand incubation times based on the maximum tracer uptake time (˜2 h) for a typical [^18F]-based PET radiotracer injection (Schlyer, PET tracers and radiochemistry. ANNALS-ACADEMY OF MEDICINE SINGAPORE 2004, 33 (2), 146-154).
Pharmacologic doses of ascorbate generates ROS, including H2O2 and trace amounts of labile iron extracellularly and/or intracellularly (Nauman et al., Systematic Review of Intravenous Ascorbate in Cancer Clinical Trials. Antioxidants (Basel) 2018, 7 (7), 89). We performed the same DCFDA assay with KS1 and ascorbate at pharmacological doses of 2 mM for 7 h in both SCC-61 and PC3 cell lines. ROS production was analyzed and reported (FIG. 11) using the similar measurements as above. Ligand specificity is commonly determined by pretreating the cells with high concentrations of blockers. We used superoxide dismutase (SOD), an enzyme that selectively suppresses accumulation of superoxide peroxide anions (Bielski et al., Chemistry of ascorbic acid radicals. in Ascorbic Acid: Chemistry, Metabolism, and Uses. Chapter 1982, 4, 81-100).

SCC-61 cells = conditions: cited from earlier work

With O=C1O/C(=C/Cc2ccc(OCCF)cc2)C(O)=C1O [KS2] the IC50 (PC3 cell line; Example 7, 48 h) was 251 µM, the IC50 (SCC-61 cell line (HNSCC); Example 7, 48 h) was 166 µM and the “higher selectivity between the two cell lines compared to ascorbate selectivity” value ([1]; Example 4, SCC-61 vs rSCC-61, MitoSOX fluorescence) was about 10 fold. For the same molecule, the “decrease of fluorescent uptake by SOD pretreatment” value ([1]; SCC-61 cells, SOD (1.0 mM) for 60 min) was about 30%.

O=C1O/C(=C/Cc2ccc(OCC[18F])cc2)C(O)=C1O [[^18F]KS2] gave an intact in serum (Ex vivo serum stability) of about 80%.

With O=C1O[C@H]([C@@H](O)CO)C(O)=C1O [ascorbate, ascorbic acid, reference compound] the “fluorescence intensity (ROS generation) at pharmacological dose” value [2] was “also increased, but not as with KS1”, the IC50 (PC3 cell line; Homo sapiens, PC-3, Example 7, 48 h) was 1120 µM and the IC50 (PC3 cell line; Homo sapiens, PC-3, Example 13) was 1410 µM. The IC50 (SCC-61 cell line (HNSCC); Homo sapiens, Example 7, 48 h) was 815 µM, the IC50 (SCC-61 cell line (HNSCC); Homo sapiens, Example 13) was 1380 µM and the “MitoSOX fluorescence in SCC-61 compared to rSCC-61 cells” value ([1]; 10.0 μM, 1 h incubation) was “higher fluorescence”.

In the case of C#Cc1cccc(Nc2ncnc3cc(OCCOC)c(OCCOC)cc23)c1 [erlotinib], the IC50 (SCC-61 cells) is given as over 50 µM.
